Biological target: T1, β-secretase(BACE) (Homo sapiens, UniProt P56817)
T1 construct: purchased Panvera
Test: BACE FS1% Inhibition Assay
Assay type: biochemical
Settings: FS1 substrate
Method in brief: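 Human BACE (4 μg/mL working solution) preincubated 20 min at room temperature with compound, then FS1 substrate (300 μg/mL working solution) added and incubated 1 h at room temperature. Percent inhibition calculated at each compound concentration against blank and vehicle controls.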

T1 sequence (P56817 46-501): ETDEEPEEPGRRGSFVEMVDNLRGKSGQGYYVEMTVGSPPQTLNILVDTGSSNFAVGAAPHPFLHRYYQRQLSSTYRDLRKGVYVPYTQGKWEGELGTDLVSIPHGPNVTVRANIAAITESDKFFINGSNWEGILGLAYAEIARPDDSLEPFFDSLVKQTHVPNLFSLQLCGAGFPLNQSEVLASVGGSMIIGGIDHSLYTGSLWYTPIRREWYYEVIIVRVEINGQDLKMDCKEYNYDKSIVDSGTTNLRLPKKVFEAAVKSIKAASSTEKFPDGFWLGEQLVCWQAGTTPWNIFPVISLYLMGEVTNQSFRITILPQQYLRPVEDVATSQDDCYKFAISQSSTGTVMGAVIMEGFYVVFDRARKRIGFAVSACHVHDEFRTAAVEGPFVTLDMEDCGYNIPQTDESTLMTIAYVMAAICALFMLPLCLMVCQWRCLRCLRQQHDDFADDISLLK

Structure (SMILES)	% Inhibition (FS) 0.3 μM (0.3 μM test compound)	% Inhibition (FS) 1 μM (1 μM test compound)	% Inhibition (FS) 3 μM (3 μM test compound)	further results
CN(C(=O)c1cccc(CN2Cc3cc(-c4ccc(C5CCCCC5)cc4)ccc3N=C2N)c1)C1CCCCC1 [Compound 267]	<30%	39%	38%	–
NC1=Nc2ccc(-c3ccccc3-c3ccccc3)cc2CN1CCNC(=O)C1CCCCC1 [Compound 544]	32%	<30%	51%	–
CSc1ccccc1-c1ccc2c(c1)CN(Cc1cccc(C(=O)N(C)C3CCCCC3)c1)C(N)=N2 [Compound 322]	<30%	<30%	95%	–
CCCC=Cc1ccc2c(c1)CN(CCNC(=O)c1cc(C)oc1C)C(N)=N2 [Compound 587]	<30%	<30%	<30%	–
N#Cc1cccc(C(=O)NCCN2Cc3cc(-c4cncnc4)ccc3N=C2N)c1 [Compound 567]	<30%	<30%	<30%	–
CN(C(=O)CC[C@@H](C1CCCCC1)N1Cc2cc(Oc3ccccc3)ccc2N=C1N)C1CCC(=O)CC1 [Compound 711]	–	–	–	% Inhibition (FS) (0.3 μM test compound): <30%; % Inhibition (FS) (1 μM test compound): 43%; % Inhibition (FS) (3 μM test compound): 113%
CC1CCC(C(=O)NCCN2Cc3cc(Oc4ccccc4)ccc3N=C2N)CC1 (centres unmarked) [Compound 191]	<30%	46%	88%	–
CCCC=Cc1ccc2c(c1)CN(CCNC(=O)CC1CCCC1)C(N)=N2 [Compound 580]	<30%	<30%	<30%	–
CC(C)c1ccccc1Oc1ccc2c(c1)CN(CCC(=O)NC1C3CC4CC(C3)CC1C4)C(N)=N2 (centres unmarked) [Compound 466]	<30%	<30%	53%	–
COc1cccc(F)c1-c1ccc2c(c1)CN(CCNC(=O)C1CCOCC1)C(N)=N2 [Compound 699]	–	–	–	% Inhibition (FS) (0.3 μM test compound): 31%; % Inhibition (FS) (1 μM test compound): 64%; % Inhibition (FS) (3 μM test compound): 93%
CCCCC(CC)C(=O)NCCN1Cc2cc(-c3ccccc3Cl)ccc2N=C1N (centres unmarked) [Compound 655]	45%	79%	104%	–
NC1=Nc2ccc(Oc3ccccc3)cc2CN1C[C@H](NC(=O)C1CCCCC1)C1CCCCC1 [Compound 636, (R)-enantiomer of cyclohexanecarboxylic acid [2-(2-amino-6-phenoxy-4H-quinazolin-3-yl)-1-cyclohexyl-ethyl]-amide]	–	–	–	inhibition at 0.3 µM (0.3 μM test compound, read-out: % Inhibition (FS) 0.3 μM): < 30%; inhibition at 1 µM (1 μM test compound, read-out: % Inhibition (FS) 1 μM): < 30%; inhibition at 3 µM (3 μM test compound, read-out: % Inhibition (FS) 3 μM): 30%
COc1ccccc1-c1ccc2c(c1)CN([C@@H](CCC(=O)N(C)C1CCCCC1)C1CCCCC1)C(N)=N2 [Compound 506]	106%	115%	128%	–
NC1=Nc2ccc(Oc3ccccc3)cc2CN1C(CNC(=O)C12CC3CC(CC(C3)C1)C2)C1CCCCC1 (centres unmarked) [Compound 312]	74%	103%	115%	–
NC1=Nc2ccc(Oc3ccccc3)cc2CN1CCCNC(=O)C1CCC1 [Compound 144]	–	–	39%	% Inhibition (FS) 10 μM (10 μM test compound): 59%
NC1=Nc2ccc(-c3cncnc3)cc2CN1CCNC(=O)C1CCCCC1 [Compound 575]	<30%	<30%	<30%	–
CN(C(=O)c1cccc(CN2Cc3cc(-c4ccc5[nH]ccc5c4)ccc3N=C2N)c1)C1CCCCC1 [Compound 175]	<30%	<30%	37%	–
CN(C(=O)CC[C@@H](C1CCCCC1)N1Cc2cc(Oc3ccccc3)ccc2N=C1N)C1CCC2(CC1)OCCO2 [Compound 710]	–	–	–	% Inhibition (FS) (0.3 μM test compound): <30%; % Inhibition (FS) (1 μM test compound): 68%; % Inhibition (FS) (3 μM test compound): 126%
CCCCCCCCC(CCC(=O)N(C)C1CCCCC1)N1Cc2cc(Oc3ccccc3)ccc2N=C1N (centres unmarked) [Compound 210]	<30%	<30%	<30%	–
NC1=Nc2ccc(-c3ccccc3F)cc2CN1CCNC(=O)C12CC3CC(CC(C3)C1)C2 [Compound 644]	46%	72%	104%	–
CN(C(=O)c1cccc(CN2Cc3cc([S+]([O-])c4ccccc4)ccc3N=C2N)c1)C1CCCCC1 (centres unmarked) [Compound 549]	<30%	30%	71%	–
NC1=Nc2ccc(Oc3ccccc3)cc2CN1CC(NC(=O)C1CCCCC1)C1CCCCC1 (centres unmarked) [Compound 637]	<30%	<30%	73%	–
CN(CCCCC(=O)O)C(=O)CC[C@@H](C1CCCCC1)N1Cc2cc(Oc3ccccc3)ccc2N=C1N [Compound 752]	–	–	–	% Inhibition (FS) (0.3 μM test compound): 45%; % Inhibition (FS) (1 μM test compound): 81%; % Inhibition (FS) (3 μM test compound): 109%
